Experiments:
PC12 cells (clone HS) = test: Cytotoxicity of steviol to PC12 cells (WST-8 viable cell count); format: cell-based, Rat; settings: for Relative viable cell count (%): 3 days, Control=100%
Method: PC12 cells (clone HS, Cat. No. JCRB0266, JCRB) were precultured for 3 days in a collagen IV-coated flask (T-75, Corning Inc., Cat. No. 354523) using a growth medium (DMEM medium (low glucose, Cat. No. 08456-65, Nacalai Tesque, Inc.) supplemented with 10% FBS (Cat. No. 172012, Sigma-Aldrich Co., LLC), 10% horse serum (Cat. No. 16050-122, Thermo Fisher Scientific Inc.), and 1% penicillin-streptomycin) in a CO2 incubator (37° C., 5% CO2; the same holds true for the description below). […] A vehicle control composed of a test medium supplemented with 0.1% DMSO (final concentration) was used as a negative control.

GRP78 = GRP78 expression in pancreatic cells (βTC6) under endoplasmic reticulum stress (RT-PCR); format: cell-based, Mouse; settings: pretreatment 4 h, tunicamycin 0.16 μM 24 h
Method: The lysate was preserved at −80° C. until use.
The internal standard gene used was GAPDH gene.

C=C1C[C@@]23CC[C@H]4[C@@](C)(CCC[C@@]4(C)C(=O)O)[C@@H]2CC[C@]1(O)C3 [Steviol]
cytotoxicity to PC12 cells (in words) (PC12 cells (clone HS); 100 μg/mL steviol): no particular cytotoxicity to be noted was found
Relative viable cell count (%) (PC12 cells (clone HS); steviol 0.01 μg/mL): 102.8%
Relative viable cell count (%) (PC12 cells (clone HS); steviol 0.1 μg/mL): 97.0%
Relative viable cell count (%) (PC12 cells (clone HS); steviol 1 μg/mL): 95.3%
Relative viable cell count (%) (PC12 cells (clone HS); steviol 10 μg/mL): 99.6%
Relative viable cell count (%) (PC12 cells (clone HS); steviol 100 μg/mL): 96.9%
Expression level of GRP78 in pancreatic cells (relative to GAPDH, untreated=1) (GRP78; steviol 6.25 μg/mL): 2.10
Expression level of GRP78 in pancreatic cells (relative to GAPDH, untreated=1) (GRP78; steviol 12.5 μg/mL): 2.03
Expression level of GRP78 in pancreatic cells (relative to GAPDH, untreated=1) (GRP78; steviol 25 μg/mL): 1.80
Expression level of GRP78 in pancreatic cells (relative to GAPDH, untreated=1) (GRP78; steviol 50 μg/mL): 1.66
